Experimental data reported in article PMC11314561, “Design and Synthesis of Novel Aminoindazole-pyrrolo[2,3-b]pyridine Inhibitors of IKKα That Selectively Perturb Cellular Non-Canonical NF-κB Signalling” (Molecules, 2024).

Tests used:
Experiment in all cases: kinase panel
Format in all cases: biochemical
[1] = molecular target: Abl(h) (Homo sapiens, UniProt P00519)
In short: (§1)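 Percentage inhibition was recorded for each compound against a broad kinase panel of 231 enzymes. Because of its close structural resemblance to another analogue, one compound was screened against 98 chosen kinases.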

[2] = molecular target: BRK(h) (Homo sapiens, UniProt Q13882)
In short: as §1

[3] = molecular target: CaMKIδ(h) (Homo sapiens, UniProt Q8IU85)
In short: as §1

[4] = molecular target: ErbB4(h) (Homo sapiens, UniProt Q15303)
In short: as §1

[5] = molecular target: IRAK1(h) (Homo sapiens, UniProt P51617)
In short: as §1

[6] = molecular target: T1, IRAK4(h) (Homo sapiens, UniProt Q9NWZ3)
T1 sequence (Q9NWZ3 1-460): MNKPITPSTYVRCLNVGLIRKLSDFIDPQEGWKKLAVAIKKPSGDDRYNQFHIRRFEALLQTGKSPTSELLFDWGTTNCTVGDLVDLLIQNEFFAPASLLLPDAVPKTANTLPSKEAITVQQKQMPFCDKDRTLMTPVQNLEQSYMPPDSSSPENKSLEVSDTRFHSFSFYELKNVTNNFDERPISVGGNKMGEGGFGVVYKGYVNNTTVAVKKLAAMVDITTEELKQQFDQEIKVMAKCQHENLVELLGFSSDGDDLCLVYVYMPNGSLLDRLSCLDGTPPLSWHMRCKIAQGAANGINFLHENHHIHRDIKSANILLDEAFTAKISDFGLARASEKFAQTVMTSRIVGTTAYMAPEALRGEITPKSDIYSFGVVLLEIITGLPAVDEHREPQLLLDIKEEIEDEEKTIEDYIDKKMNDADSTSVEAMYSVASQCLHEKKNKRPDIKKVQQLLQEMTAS
In short: as §1

[7] = molecular target: PAR-1Bα(h) (Homo sapiens, UniProt Q7KZI7)
In short: as §1

[8] = molecular target: T2, PKCμ(h) (Homo sapiens, UniProt Q15139)
T2 sequence (Q15139 1-912): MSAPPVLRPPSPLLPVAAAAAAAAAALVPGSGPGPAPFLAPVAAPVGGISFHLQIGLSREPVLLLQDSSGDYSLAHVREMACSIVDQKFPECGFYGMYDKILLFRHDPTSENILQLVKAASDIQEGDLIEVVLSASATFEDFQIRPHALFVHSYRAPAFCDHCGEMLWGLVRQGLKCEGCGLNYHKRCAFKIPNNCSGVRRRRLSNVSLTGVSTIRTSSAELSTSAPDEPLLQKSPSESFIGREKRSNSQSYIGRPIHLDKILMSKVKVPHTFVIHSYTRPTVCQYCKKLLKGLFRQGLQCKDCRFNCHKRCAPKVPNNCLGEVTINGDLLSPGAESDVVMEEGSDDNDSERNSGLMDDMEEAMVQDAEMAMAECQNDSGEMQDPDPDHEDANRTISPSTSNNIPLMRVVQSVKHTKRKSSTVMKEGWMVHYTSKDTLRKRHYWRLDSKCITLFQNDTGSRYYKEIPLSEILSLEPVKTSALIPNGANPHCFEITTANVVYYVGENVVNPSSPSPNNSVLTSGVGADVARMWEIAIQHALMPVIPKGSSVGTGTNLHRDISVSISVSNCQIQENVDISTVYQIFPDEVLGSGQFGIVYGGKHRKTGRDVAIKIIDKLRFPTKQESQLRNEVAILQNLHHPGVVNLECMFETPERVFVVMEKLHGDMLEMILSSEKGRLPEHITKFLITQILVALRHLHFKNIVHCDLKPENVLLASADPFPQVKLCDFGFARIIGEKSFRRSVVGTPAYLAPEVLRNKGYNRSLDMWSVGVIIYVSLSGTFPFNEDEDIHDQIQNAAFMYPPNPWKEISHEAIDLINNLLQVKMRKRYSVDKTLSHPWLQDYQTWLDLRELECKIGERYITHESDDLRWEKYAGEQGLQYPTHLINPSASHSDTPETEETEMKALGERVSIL
In short: as §1

[9] = molecular target: T3, PKD2(h) (Homo sapiens, UniProt Q9BZL6)
T3 sequence (Q9BZL6 1-878): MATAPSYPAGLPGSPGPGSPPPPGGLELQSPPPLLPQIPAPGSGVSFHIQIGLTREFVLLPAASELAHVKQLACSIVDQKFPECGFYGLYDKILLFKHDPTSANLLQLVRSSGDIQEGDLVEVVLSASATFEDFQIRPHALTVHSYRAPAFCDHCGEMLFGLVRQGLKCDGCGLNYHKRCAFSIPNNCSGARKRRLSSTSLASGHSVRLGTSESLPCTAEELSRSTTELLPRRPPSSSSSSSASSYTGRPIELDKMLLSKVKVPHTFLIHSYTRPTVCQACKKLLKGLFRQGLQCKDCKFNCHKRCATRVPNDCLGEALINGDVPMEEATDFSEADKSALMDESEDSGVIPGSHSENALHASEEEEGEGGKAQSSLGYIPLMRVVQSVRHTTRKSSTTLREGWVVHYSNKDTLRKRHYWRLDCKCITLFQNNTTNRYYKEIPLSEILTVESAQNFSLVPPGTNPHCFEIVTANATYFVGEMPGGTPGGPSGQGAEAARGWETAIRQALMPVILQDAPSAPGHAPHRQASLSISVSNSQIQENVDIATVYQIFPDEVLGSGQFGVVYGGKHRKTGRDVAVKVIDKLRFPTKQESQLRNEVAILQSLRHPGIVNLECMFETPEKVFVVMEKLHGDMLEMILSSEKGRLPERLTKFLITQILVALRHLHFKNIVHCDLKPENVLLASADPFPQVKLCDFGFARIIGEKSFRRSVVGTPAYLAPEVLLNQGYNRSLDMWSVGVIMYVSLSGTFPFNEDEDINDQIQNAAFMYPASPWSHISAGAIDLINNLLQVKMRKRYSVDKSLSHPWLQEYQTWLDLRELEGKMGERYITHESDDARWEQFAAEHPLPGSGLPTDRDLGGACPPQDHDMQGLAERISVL
In short: as §1

[10] = molecular target: TrkA(h) (Homo sapiens, UniProt P04629)
In short: as §1

[11] = molecular target: cSRC(h) (Homo sapiens, UniProt P12931)
In short: as §1

CaMKIδ(h), sequence (Q8IU85 whole entry): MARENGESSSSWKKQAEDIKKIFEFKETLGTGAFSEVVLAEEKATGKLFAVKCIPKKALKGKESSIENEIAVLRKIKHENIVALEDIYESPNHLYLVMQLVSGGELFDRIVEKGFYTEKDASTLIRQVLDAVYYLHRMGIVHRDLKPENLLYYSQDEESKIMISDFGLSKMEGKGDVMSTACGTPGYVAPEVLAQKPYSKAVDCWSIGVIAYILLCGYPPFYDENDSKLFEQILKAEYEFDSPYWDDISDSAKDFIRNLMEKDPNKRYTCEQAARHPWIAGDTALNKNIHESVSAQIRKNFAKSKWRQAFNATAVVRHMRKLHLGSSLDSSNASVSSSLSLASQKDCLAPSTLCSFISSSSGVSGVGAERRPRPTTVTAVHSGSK
cSRC(h), sequence (P12931 whole entry): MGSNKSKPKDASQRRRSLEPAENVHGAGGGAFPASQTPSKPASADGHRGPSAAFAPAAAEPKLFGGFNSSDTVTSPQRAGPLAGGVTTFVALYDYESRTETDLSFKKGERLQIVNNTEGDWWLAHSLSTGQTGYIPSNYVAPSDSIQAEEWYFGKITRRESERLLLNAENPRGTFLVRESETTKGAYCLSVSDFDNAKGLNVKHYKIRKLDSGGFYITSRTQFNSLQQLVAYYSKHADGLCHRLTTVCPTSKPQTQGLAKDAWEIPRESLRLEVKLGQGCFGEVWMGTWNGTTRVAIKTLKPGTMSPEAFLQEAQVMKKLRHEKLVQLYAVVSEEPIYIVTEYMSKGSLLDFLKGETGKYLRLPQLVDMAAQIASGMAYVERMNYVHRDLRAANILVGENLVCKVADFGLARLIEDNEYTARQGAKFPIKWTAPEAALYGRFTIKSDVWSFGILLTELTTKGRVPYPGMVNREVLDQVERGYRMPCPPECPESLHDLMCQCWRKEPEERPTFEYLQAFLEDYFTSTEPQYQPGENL
ErbB4(h), sequence (Q15303 26-1308): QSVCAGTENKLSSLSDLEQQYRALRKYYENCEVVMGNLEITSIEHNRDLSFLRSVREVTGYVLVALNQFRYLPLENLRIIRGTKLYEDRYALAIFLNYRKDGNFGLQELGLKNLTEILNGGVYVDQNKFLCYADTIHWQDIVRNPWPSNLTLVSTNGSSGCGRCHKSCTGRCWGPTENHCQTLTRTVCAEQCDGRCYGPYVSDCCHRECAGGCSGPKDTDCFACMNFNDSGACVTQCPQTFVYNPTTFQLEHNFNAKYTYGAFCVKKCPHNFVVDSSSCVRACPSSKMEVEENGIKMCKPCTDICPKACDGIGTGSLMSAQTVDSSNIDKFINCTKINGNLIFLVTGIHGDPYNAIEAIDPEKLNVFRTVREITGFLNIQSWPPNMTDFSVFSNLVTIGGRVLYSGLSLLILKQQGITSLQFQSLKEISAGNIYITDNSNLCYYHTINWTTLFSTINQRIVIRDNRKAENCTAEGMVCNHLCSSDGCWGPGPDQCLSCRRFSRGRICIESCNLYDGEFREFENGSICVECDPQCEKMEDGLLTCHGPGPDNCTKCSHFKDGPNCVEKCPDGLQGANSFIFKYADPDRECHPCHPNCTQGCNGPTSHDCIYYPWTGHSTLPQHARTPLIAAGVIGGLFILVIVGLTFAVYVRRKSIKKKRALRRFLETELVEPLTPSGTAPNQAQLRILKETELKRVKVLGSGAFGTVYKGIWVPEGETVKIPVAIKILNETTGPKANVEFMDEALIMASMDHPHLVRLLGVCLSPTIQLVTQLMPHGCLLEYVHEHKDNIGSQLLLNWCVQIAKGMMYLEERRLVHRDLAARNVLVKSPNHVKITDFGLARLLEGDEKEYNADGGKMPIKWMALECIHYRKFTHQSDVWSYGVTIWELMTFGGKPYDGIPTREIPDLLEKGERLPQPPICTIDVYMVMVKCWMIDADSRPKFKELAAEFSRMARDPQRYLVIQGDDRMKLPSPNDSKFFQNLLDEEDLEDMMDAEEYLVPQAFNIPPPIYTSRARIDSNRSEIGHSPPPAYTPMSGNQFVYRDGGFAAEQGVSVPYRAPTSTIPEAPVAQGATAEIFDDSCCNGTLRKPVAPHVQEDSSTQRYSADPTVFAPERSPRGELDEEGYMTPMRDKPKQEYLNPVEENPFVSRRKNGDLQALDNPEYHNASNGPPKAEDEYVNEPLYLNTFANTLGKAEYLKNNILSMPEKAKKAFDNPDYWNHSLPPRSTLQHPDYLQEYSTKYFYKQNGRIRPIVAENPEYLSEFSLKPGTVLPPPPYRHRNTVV
TrkA(h), sequence (P04629 33-796): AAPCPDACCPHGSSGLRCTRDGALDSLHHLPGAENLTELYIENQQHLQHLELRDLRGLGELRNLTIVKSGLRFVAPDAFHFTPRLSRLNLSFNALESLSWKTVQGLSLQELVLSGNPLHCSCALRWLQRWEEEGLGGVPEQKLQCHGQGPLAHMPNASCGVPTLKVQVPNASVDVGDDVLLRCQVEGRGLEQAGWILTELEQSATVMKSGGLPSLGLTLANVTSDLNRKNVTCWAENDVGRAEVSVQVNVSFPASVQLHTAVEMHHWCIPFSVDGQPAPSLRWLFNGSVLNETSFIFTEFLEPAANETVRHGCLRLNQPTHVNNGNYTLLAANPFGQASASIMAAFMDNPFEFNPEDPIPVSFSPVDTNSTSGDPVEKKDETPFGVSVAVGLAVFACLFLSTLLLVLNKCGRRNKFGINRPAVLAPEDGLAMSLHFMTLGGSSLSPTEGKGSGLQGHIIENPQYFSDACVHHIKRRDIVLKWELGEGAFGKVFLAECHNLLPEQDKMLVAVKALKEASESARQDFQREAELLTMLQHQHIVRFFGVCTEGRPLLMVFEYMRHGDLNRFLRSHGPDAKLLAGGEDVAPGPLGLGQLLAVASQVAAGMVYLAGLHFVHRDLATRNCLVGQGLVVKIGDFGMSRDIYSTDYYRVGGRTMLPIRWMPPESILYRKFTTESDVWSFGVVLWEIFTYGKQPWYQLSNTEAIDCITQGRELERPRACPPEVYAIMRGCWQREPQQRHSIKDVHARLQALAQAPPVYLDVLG
BRK(h), sequence (Q13882 whole entry): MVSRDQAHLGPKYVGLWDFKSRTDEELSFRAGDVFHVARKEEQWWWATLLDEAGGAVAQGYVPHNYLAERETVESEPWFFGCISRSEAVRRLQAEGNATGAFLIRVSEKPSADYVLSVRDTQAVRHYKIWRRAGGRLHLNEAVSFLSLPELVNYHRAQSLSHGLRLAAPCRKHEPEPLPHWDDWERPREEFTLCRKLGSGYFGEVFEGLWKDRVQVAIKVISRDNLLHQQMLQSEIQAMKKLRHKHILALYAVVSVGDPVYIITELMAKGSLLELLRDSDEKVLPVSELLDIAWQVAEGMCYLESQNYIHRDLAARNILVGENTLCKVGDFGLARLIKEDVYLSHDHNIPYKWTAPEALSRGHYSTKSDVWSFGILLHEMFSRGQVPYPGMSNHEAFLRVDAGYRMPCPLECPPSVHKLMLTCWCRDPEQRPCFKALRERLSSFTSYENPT
Abl(h), sequence (P00519 whole entry): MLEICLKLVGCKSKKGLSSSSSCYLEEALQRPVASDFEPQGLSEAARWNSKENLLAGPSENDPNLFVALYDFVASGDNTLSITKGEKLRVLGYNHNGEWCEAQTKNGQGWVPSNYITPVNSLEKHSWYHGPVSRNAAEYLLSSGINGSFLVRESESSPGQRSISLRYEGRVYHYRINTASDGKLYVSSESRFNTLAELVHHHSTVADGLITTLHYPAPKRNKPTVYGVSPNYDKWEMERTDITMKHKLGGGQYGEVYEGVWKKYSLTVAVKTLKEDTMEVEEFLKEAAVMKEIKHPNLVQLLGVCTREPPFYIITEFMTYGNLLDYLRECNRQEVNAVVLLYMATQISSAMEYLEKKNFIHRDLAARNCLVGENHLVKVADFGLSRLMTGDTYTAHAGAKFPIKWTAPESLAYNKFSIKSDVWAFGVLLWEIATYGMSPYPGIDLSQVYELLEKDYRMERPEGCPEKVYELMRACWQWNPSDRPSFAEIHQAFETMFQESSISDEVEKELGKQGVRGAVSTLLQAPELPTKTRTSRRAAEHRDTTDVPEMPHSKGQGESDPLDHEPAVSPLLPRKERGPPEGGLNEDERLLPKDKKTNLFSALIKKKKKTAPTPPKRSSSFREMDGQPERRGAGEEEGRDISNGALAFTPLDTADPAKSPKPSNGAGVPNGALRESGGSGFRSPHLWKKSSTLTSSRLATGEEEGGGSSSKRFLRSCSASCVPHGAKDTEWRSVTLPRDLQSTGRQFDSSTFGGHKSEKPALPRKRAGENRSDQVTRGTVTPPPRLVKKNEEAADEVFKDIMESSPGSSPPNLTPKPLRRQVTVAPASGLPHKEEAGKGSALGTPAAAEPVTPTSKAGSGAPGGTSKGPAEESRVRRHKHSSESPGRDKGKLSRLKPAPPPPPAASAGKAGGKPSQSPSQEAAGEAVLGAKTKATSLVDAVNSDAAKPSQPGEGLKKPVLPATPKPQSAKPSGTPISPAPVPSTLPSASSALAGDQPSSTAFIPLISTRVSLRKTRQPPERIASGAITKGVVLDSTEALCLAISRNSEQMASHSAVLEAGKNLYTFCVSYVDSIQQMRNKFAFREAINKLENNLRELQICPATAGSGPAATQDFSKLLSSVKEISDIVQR

SMILES	inhibition at 1 µM [1] [%]	inhibition at 1 µM [2] [%]	inhibition at 1 µM [3] [%]	inhibition at 1 µM [4] [%]	inhibition at 1 µM [5] [%]	inhibition at 1 µM [6] [%]	inhibition at 1 µM [7] [%]	inhibition at 1 µM [8] [%]	inhibition at 1 µM [9] [%]	inhibition at 1 µM [10] [%]	inhibition at 1 µM [11] [%]
Nc1n[nH]c2ccc(-c3ccnc4[nH]c(-c5ccccc5)cc34)cc12 [Compound 4]	86	46	-8	20	89	25	86	21	8	71	42
Nc1n[nH]c2ccc(-c3ccnc4[nH]c(-c5cccc(OCc6ccccc6)c5)cc34)cc12 [Compound 5r [SU1261]]	44	17	9	14	42	3	29	18	-1	29	26
Nc1n[nH]c2ccc(-c3ccnc4[nH]c(-c5ccnc(OCc6ccccc6)c5)cc34)cc12 [Compound 6g [SU1349]]	15	8	24	-5	37	-8	20	-9	-5	-11	-28
